One may read the IC50 as the concentration needed to halve the response being measured.

The assay concerns the target T1, full-length human PRMT3 isoform 1 (GST-tagged) (Homo sapiens, UniProt O60678).
T1 construct: GST-tagged PRMT3; made in house; host or cells: E. coli BL21(DE3) Gold
The assay is described as follows: PRMT3 Biochemical Assay (3H-SAM Flashplate, peptide substrate). The settings on record: single experiment or average of multiple experiments. The source says: General Materials. S-adenosylmethionine (SAM), S-adenosylhomocysteine (SAH), bicine, Tween20, dimethylsulfoxide (DMSO), bovine skin gelatin (BSG),), isopropyl-β-D-thiogalactopyranoside (IPTG), and Tris(2-carboxyethyl)phosphine hydrochloride solution (TCEP) were purchased from Sigma-Aldrich at the highest level of purity possible. ^3H-SAM was purchase from American Radiolabeled Chemicals with a specific activity of 80 Ci/mmol. 384-well streptavidin Flashplates were purchased from PerkinElmer.
Substrates. Peptide containing the classic RMT substrate motif was synthesized with an N-terminal linker-affinity tag motif and a C-terminal amide cap by 21st Century Biochemicals. The peptide was purified by high-performance liquid chromatography (HPLC) to greater than 95% purity and confirmed by liquid chromatography mass spectrometry (LC-MS). The sequence was Biot-Ahx-[…]-amide (SEQ ID NO.:11).
Molecular Biology: Full-length human PRMT3 (NM_005788.3) isoform 1 transcript clone was amplified from an HEK 293 cDNA library and subcloned into pGEX-KG (GE Life Sciences). The resulting construct encodes an N-terminal GST tag and a thrombin cleavage sequence ([…] […] […] […] S) (SEQ ID NO.:12) fused directly to Cys 2 of PRMT3.
Protein Expression. E. coli (BL21(DE3) Gold, Stratagene) made competent by the CaCl2) method were transformed with the PRMT3 construct and ampicillin selection. Protein over-expression was accomplished by growing the PRMT3 expressing E. coli clone and inducing expression with 0.3 mM IPTG at 16° C. The culture was grown for 12 hours, harvested by centrifugation, and stored at −80° C. for purification.
Protein Purification. […] GST-tagged PRMT3 was eluted with 50 mM Tris, 2 mM glutathione, pH 7.1 and 50 mM Tris, 20 mM glutathione, pH 7.1. Pooled fractions were dialysed in 20 mM Tris, 50 mM NaCl, 5% glycerol, 1 mM EDTA, 1 mM DTT, pH7.5 (Buffer B) and applied to a Q Sepharose Fast Flow column. GST-tagged PRMT3 was eluted by 500 mM NaCl in buffer B. Pooled fractions were dialyzed in 25 mM phosphate buffer, 100 mM NaCl, 5% glycerol, 2 mM DTT, pH 6.8 (Buffer C) and loaded on to a ceramic hydroxyapatite column. GST-tagged PRMT3 eluted with 25-400 mM phosphate in buffer C. Protein was concentrated and buffer was exchanged to 20 mM Tris, 150 mM NaCl, 5% glycerol, 5 mM β-mercaptoethanol, pH7.8 by ultrafiltration. The purity of recovered protein was 70%.
General Procedure for PRMT3 Enzyme Assays on Peptide Substrates. The assays were all performed in a buffer consisting of 20 mM Bicine (pH=7.6), 1 mM TCEP, 0.005% BSG, and 0.002% Tween 20, prepared on the day of use. Compounds in 100% DMSO (1 ul) were spotted into a polypropylene 384-well V-bottom plates (Greiner) using a Platemate Plus outfitted with a 384-channel head (Thermo Scientific). DMSO (1 ul) was added to Columns 11, 12, 23, 24, rows A-H for the maximum signal control and 1 ul of SAH, a known product and inhibitor of PRMT3, was added to columns 11, 12, 23, 24, rows I-P for the minimum signal control. A cocktail (40 ul) containing the PRMT3 enzyme was added by Multidrop Combi (Thermo-Fisher). The compounds were allowed to incubate with PRMT3 for 30 min at room temperature, then a cocktail (10 ul) containing SAM and peptide was added to initiate the reaction (final volume=51 ul). The final concentrations of the components were as follows: PRMT3 was 0.5 nM, ^3H-SAM was 100 nM, non-radiolabeled SAM was 1.8 uM, peptide was 330 nM, SAH in the minimum signal control wells was 1 mM, and the DMSO concentration was 2%. The assays were stopped by the addition of potassium chloride (10 ul) to a final concentration of 100 mM. 50 ul of the reaction in the 384-well polypropylene plate was then transferred to a 384-well Flashplate and the biotinylated peptides were allowed to bind to the streptavidin surface for at least 1 hour before being washed once with 0.1% Tween20 in a Biotek ELx405 plate washer. […]

Molecules are shown by their SMILES.

T1 sequence (O60678 with tags, fused parts or gaps): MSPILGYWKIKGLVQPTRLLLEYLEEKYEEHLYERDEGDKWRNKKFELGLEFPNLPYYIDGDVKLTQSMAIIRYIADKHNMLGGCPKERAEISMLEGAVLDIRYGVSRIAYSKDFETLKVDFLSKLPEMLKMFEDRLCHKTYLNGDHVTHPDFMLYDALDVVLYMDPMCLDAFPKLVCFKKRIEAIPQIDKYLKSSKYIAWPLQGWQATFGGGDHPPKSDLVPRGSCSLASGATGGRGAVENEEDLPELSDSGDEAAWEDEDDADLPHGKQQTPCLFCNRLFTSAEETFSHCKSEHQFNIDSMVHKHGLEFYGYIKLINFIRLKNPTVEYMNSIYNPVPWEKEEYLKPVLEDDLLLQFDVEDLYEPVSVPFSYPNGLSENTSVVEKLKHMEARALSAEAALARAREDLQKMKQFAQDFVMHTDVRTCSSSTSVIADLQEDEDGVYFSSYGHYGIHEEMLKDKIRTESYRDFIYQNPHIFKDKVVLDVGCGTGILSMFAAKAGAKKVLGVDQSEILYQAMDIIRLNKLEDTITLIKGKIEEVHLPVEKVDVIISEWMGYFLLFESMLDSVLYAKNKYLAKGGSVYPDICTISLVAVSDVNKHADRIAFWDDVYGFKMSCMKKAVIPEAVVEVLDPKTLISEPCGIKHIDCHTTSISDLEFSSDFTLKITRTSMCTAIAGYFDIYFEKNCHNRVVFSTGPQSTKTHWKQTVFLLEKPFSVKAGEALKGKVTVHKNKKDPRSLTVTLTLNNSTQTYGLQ

`CNCCN(C)Cc1c[nH]nc1C#Cc1ccccc1` [Compound 3] registered a half-inhibitory concentration (IC50) of 9.4 µM.

Source of the values: US11512053B2, “Arginine methyltransferase inhibitors and uses thereof” (priority 2013, dated 2022).
